Ends that are not written are not given here.
T1: xOX2R (Xenopus orexin type-2 receptor) (Xenopus laevis, UniProt F8RUB9)
T1 sequence (F8RUB9 1-440): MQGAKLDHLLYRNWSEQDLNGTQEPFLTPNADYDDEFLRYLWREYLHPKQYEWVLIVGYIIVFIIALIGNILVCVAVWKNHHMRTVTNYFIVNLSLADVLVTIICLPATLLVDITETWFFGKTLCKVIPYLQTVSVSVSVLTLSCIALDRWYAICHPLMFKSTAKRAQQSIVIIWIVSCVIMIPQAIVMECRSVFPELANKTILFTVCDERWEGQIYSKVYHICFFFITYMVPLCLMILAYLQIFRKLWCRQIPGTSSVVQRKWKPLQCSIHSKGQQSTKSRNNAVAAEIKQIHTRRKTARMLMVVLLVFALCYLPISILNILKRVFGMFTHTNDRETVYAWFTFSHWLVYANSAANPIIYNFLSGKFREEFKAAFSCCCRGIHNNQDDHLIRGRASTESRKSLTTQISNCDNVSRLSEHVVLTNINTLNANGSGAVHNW

T2: lfSCTR (P. dolloi secretin receptor) (Protopterus dolloi, UniProt F8RUA8)
T2 sequence (F8RUA8 1-463): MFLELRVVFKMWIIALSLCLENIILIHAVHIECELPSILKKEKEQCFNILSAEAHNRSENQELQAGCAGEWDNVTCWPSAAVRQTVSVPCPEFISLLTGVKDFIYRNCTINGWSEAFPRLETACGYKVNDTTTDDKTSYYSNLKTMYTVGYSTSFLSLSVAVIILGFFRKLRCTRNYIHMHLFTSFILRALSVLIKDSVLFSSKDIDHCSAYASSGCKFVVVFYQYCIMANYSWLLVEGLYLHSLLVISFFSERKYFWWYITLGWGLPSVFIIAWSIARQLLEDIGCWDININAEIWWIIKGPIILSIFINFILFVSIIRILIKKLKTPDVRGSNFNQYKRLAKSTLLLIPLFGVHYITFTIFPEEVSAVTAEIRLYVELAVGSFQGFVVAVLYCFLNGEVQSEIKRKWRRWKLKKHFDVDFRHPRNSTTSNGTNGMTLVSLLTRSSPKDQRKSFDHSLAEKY

B1: xSCT: 28-amino acid X. laevis secretin peptide cloned in this study, synthesized by one of the authors (protein)
chain: SSLPARSKRHVDGRFTSEFSRARGSAAIRKIINSALAGKRDIEENYQIDVPDVDNQREILKELAYNSLPELRSEEKQLTEQKAAEDLLCSAILNMLYRAPYQPLPAQSAQDYQGKNSSVEEVKHI

Legend:
[1] = system: R. rugulosa pancreatic ductal cells; assay: cAMP production in primary culture of R. rugulosa pancreatic ductal cells; type: cell-based, Rana rugulosa; conditions: positive control
Procedure: Adult male R. rugulosa was sacrificed by cervical decapitation. The freshly excised pancreas was removed and washed in Ringer solution (in mM, 85 NaCl, 4 KCl, 17.5 NaHCO3, 0.8 KH2PO4, 2 glucose, 1.5 CaCl2 and 0.8 MgCl2, pH 7.6). The excised pancreas was then minced into approximately 1 mm^3 pieces and digested at room temperature for 1 hr in the dissociation medium (Ringer solution supplemented with 0.2 mg/ml soy beans trypsin inhibitor (Sigma), 2 mg/ml BSA (Roche), 400 U/ml hyaluronidase (Sigma) and 50 U/ml collagenase (Sigma)). The tissue suspension was then washed with Ringer solution and small clusters of dissociated cells were filtered with the use of a 100-µm cell strainer (BD Falcon, US). Filtrate containing the undigested tissue, including the pancreatic ducts, was maintained in culture medium (80% Leibovitz's L-15 medium (Invitrogen) supplemented with 10% FBS and 100 U/ml Penicillin/[…] Streptomycin) in a humidified incubator at 24°C. […] The isolated pancreatic ductal cells were then used for cAMP stimulation in the presence of xSCT peptides and forskolin.

[2] = biological target: T1, xOX2R (Xenopus orexin type-2 receptor); assay: Intracellular calcium mobilization in xOX2R-CHO cells; type: cell-based; conditions: data not shown
Procedure: (§1) For confocal calcium imaging, transiently transfected cells were plated at a density of 3000 cells/well in 24-well plates (Sigma-Aldrich, St. Louis, MO). After overnight incubation, cells were pre-loaded with 5 µM Fluo-3 acetoxymethyl ester (AM) (Sigma) for 45 min at 37°C in Tyrode solution consisting of (mM): 140 NaCl, 5 KCl, 1 MgCl2, 1 CaCl2, 10 glucose and 10 HEPES at pH 7.4. Calcium transient of single receptor-transfected CHO cell was recorded with a confocal imaging system (Olympus Fluoview System version 4.2 FV300 TIEMPO) mounted on an upright Olympus microscope (IX71). Peptides at concentrations ranging from 10^−5 to 10^−12 M were added at designated time point and calcium level was traced in a real-time manner using the Fluoview software (Olympus). […] For both assays, ionomycin (10 µM) was added at the end of each experiment to test the vitality of the cells.
(§2) Differences were considered significant when P<0.05.

[3] = biological target: T2, lfSCTR (P. dolloi secretin receptor); assay: Intracellular calcium mobilization in lfSCTR-transfected CHO cells; type: cell-based; conditions: lfSCTR-transfected CHO cells preloaded with Fluo-3; confocal imaging; at least 10 independent experiments; read-out: [Ca2+]i EC50, lfSCTR
Procedure: as §1, §2

[4] = biological target: T2, lfSCTR (P. dolloi secretin receptor); assay: Intracellular cAMP production in lfSCTR-transfected CHO cells; type: cell-based; conditions: for [cAMP]i stimulation of lfSCTR at 100 nM: 100 nM peptide, lfSCTR-transfected CHO-K1 cells, P<0.001; for EC50: CHO cells transiently transfected with lfSCTR, graded peptide concentrations, LANCE cAMP assay, mean ± SEM, n = 4, read-out: [cAMP]i EC50, lfSCTR
Text: as §2

orexin receptor = conditions: rat anterior hypothalamus and orexin receptor-transfected cells; cited from earlier work
Text: (§3) Orexins A and B [17] or hypocretins 1 and 2 [18] are peptides isolated from the rat hypothalamus in 1998 by two independent research groups. Both peptides are derived from the same precursor protein and are produced by differential proteolytic cleavage. Because the C-terminal portions of both orexin peptides resemble the N-terminal of secretin, orexins were proposed to have originated from secretin or the related peptides in the secretin/glucagon superfamily, [19]. This hypothesis was then examined by studying the bindings of these peptides with their receptors in mammals and conf ...

human orexin receptors = conditions: cited from earlier work
Text: as §3

[5] = system: human orexin type-2 receptor; conditions: human orexin type-2 receptor-transfected CHO cells; cited from earlier work
Text: as §3

[6] = lfSCTR-CHO cells, micro-molar concentrations (10^-5 and 10^-6 M)

Molecule	EC50 [3]	[cAMP]i stimulation of lfSCTR at 100 nM [4]	EC50 [4]	further results
C=C[C@@]1(C)CC(=O)[C@]2(O)[C@@]3(C)[C@@H](O)CCC(C)(C)[C@@H]3[C@H](O)[C@H](OC(C)=O)[C@@]2(C)O1 [Forskolin]				increase in cAMP level compared with the basal [1]: 20 fold
Human orexin B: human orexin B peptide				[Ca2+]i response, xOX2R [2]: able to induce calcium elevations
Human orexin A: human orexin A peptide (QPLPDCCRQKTCSCRLYELLHGAGNHAAGILTL; ends and bridges not checked; cysteine pairing not given here; UniProt O43612 34-66, looked up)				[Ca2+]i response, xOX2R [2]: able to induce calcium elevations
CC[C@H](C)[C@H](NC(=O)CNC(=O)[C@H](CC(=O)O)NC(=O)[C@H](CO)NC(=O)[C@@H](N)Cc1c[nH]cn1)C(=O)N[C@@H](Cc1ccccc1)C(=O)N[C@H](C(=O)N[C@@H](CC(=O)O)C(=O)N[C@@H](CO)C(=O)N[C@@H](Cc1ccc(O)cc1)C(=O)N[C@@H](CO)C(=O)N[C@@H](CCCNC(=N)N)C(=O)N[C@@H](Cc1ccc(O)cc1)C(=O)N[C@@H](CCCNC(=N)N)C(=O)N[C@@H](CCCCN)C(=O)N[C@@H](CCC(N)=O)C(=O)N[C@@H](CCSC)C(=O)N[C@@H](C)C(=O)N[C@H](C(=O)N[C@@H](CCCCN)C(=O)N[C@@H](CCCCN)C(=O)N[C@@H](Cc1ccc(O)cc1)C(=O)N[C@@H](CC(C)C)C(=O)N[C@@H](C)C(=O)N[C@@H](C)C(=O)N[C@H](C(=O)N[C@@H](CC(C)C)C(N)=O)C(C)C)C(C)C)[C@@H](C)O [hPACAP27]	25.6 nM	significantly stimulate	410 nM	
Porcine SCT: porcine secretin, literature result (HSDGTFTSELSRLRDSARLQRLLQGLV; ends and bridges not checked; UniProt P63298 33-59, looked up)				displacement of [125I] orexin A binding (orexin receptor): found to displace
SCT: secretin, species not stated, in cited human orexin receptor studies				agonistic or antagonistic effects (human orexin receptors): neither agonistic nor antagonistic effects; calcium elevation [5]: unable; displacement of [125I] orexin A [5]: unable to displace
CC(C)C[C@H](NC(=O)CNC(=O)[C@H](CCC(N)=O)NC(=O)[C@H](CC(C)C)NC(=O)[C@H](CC(C)C)NC(=O)[C@H](CCCNC(=N)N)NC(=O)[C@H](CCC(N)=O)NC(=O)[C@H](CC(C)C)NC(=O)[C@H](CCCNC(=N)N)NC(=O)[C@H](C)NC(=O)CNC(=O)[C@H](CCC(=O)O)NC(=O)[C@H](CCCNC(=N)N)NC(=O)[C@H](CC(C)C)NC(=O)[C@H](CCCNC(=N)N)NC(=O)[C@H](CO)NC(=O)[C@H](CC(C)C)NC(=O)[C@H](CCC(=O)O)NC(=O)[C@H](CO)NC(=O)[C@@H](NC(=O)[C@H](Cc1ccccc1)NC(=O)[C@@H](NC(=O)CNC(=O)[C@H](CC(=O)O)NC(=O)[C@H](CO)NC(=O)[C@@H](N)Cc1c[nH]cn1)[C@@H](C)O)[C@@H](C)O)C(=O)N[C@H](C(N)=O)C(C)C [hSCT]	14.7 nM	significantly stimulate	790 nM	efficacy of hSCT relative to hPACAP27 in triggering [cAMP]i [4, 6]: 5.0 fold; efficacy of hSCT relative to hVIP in triggering [cAMP]i [4, 6]: 3.6 fold
CC[C@H](C)[C@H](NC(=O)[C@H](CO)NC(=O)[C@H](CC(N)=O)NC(=O)[C@H](CC(C)C)NC(=O)[C@H](Cc1ccc(O)cc1)NC(=O)[C@H](CCCCN)NC(=O)[C@H](CCCCN)NC(=O)[C@@H](NC(=O)[C@H](C)NC(=O)[C@H](CCSC)NC(=O)[C@H](CCC(N)=O)NC(=O)[C@H](CCCCN)NC(=O)[C@H](CCCNC(=N)N)NC(=O)[C@H](CC(C)C)NC(=O)[C@H](CCCNC(=N)N)NC(=O)[C@@H](NC(=O)[C@H](Cc1ccc(O)cc1)NC(=O)[C@H](CC(N)=O)NC(=O)[C@H](CC(=O)O)NC(=O)[C@@H](NC(=O)[C@H](Cc1ccccc1)NC(=O)[C@@H](NC(=O)[C@H](C)NC(=O)[C@H](CC(=O)O)NC(=O)[C@H](CO)NC(=O)[C@@H](N)Cc1c[nH]cn1)C(C)C)[C@@H](C)O)[C@@H](C)O)C(C)C)C(=O)N[C@@H](CC(C)C)C(=O)N[C@@H](CC(N)=O)C(N)=O [hVIP]	10.3 nM	significantly stimulate	160 nM	
B1	273 nM		1820 nM	

Reference: publication PMC3084839, “Origin of Secretin Receptor Precedes the Advent of Tetrapoda: Evidence on the Separated Origins of Secretin and Orexin” (PLoS ONE, 2011)
